Experimental data taken from US20220184008A1, “MODULATORS OF INTRACELLULAR CHLORIDE CONCENTRATION” (FONDAZIONE ISTITUTO ITALIANO DI TECNOLOGIA, priority 2019, published 2022).

System: Ts65Dn mice
Test: Cognitive impairment tests in Ts65Dn mice (object location, object recognition, T-maze, fear conditioning)
Type: in vivo
Details: i.p. 0.2 mg/kg, one week; four cognitive tests
Text: FIG. 4: In vivo assessment of the efficacy of the selected NKCC1 inhibitor in Ts65Dn mice. (a) Quantification of the discrimination index in mice treated with vehicle (WT, n=14, Ts65Dn, n=10;) or 3.17 (WT, n=14, Ts65Dn, n=11;) ***P<0.001; two-way ANOVA Tukey's post hoc test. (b) Quantification of the discrimination index in mice treated with vehicle (WT, n=14, Ts65Dn, n=10;) or 3.17 (WT, n=14, Ts65Dn, n=11) *P<0.05, **P<0.01 two-way ANOVA Tukey's post hoc test. (c) Quantification of the correct choices in mice treated with vehicle (WT, n=14, Ts65Dn, n=10;) or 3.17 (WT, n=14, Ts65Dn, n=11;) ***P<0.001; two-way ANOVA Tukey's post hoc test. (d) Quantification of the freezing response in mice treated with vehicle (WT, n=14, Ts65Dn, n=10;) or 3.17 (WT, n=14, Ts65Dn, n=11;) *P<0.05, **P<0.01 two-way ANOVA Tukey's post hoc test.
The efficacy of compound 3.17 in rescuing cognitive impairment in four different cognitive tests in Ts65Dn mice (FIG. 4) has been evaluated. Adult Ts65Dn mice and their WT littermates were treated (2 months old) for one week with 3.17 (i.p. 0.2 mg/kg) or its vehicle. For the following three weeks, the animals were tested in four different tasks assessing memory and cognition: a) novel object location task (Deidda, G. et al. Reversing excitatory GABAAR signaling restores synaptic plasticity and memory in a mouse model of Down syndrome. […]

## CN(C)S(=O)(=O)c1cc(C(=O)O)ccc1NCCCCCCCC(F)(F)F [Compound 3.17, 3-(dimethylsulfamoyl)-4-(8,8,8-trifluorooctylamino) benzoic acid]
  cognitive performance of Ts65Dn mice: ameliorated
